From US20140271485A1, “USE OF COELENTERAZINE FOR IMAGING INSULIN-GENERATING BETA-CELLS” (The Board of Trustees of the Leland Stanford Junior …, priority 2013, published 2014) come the findings set out here.

Entries after “also recorded” stand apart in the source; their conditions may differ.

The test system of test [1] is β-cell mass (pancreatic signal). In words: Streptozotocin-induced diabetic mouse model, coelenterazine imaging of pancreas. The class given is in vivo, mice. As for the experimental part: FIGS. 4A-4D illustrate the results from a streptozotocin-induced diabetic mouse model. Mice were treated with 200 mg/kg of streptozotocin (STZ) or PBS on day 0.
Top Panel: 3-days post-treatment, mice were administered 2 g/kg glucose and maintained on 10% sucrose water. Four h later, mice were intravenously injected with 1.4 mg/kg of coelenterazine and imaged. Bottom panel: Bioluminescence imaging of the excised pancreases collected from the mice depicted in top panel.
To conclusively determine the β-cell specificity of the signal, coelenterazine was used to image the pancreas of mice that received the β-cell toxic agent streptozotocin (STZ) versus a Phosphate-Buffered Saline (PBS) control in which the β-cells were functional.

A further test deals with pancreas. Kind of test: Ex vivo bioluminescence imaging of excised tissues with coelenterazine. The following applies: ex vivo imaging of excised mouse tissues; significance P<0.05. On the set-up: species or system mice. The method, then:
FIG. 2A is a digital image illustrating bioluminescence images of excised tissues from 3 mice in 1 mL PBS with 20 μg coelenterazine and imaged immediately.
Error bars represent the standard error and significance is defined as P<0.05.

Test [2] concerns β-cell mass (pancreatic signal). In words: In vivo bioluminescence imaging of beta cell mass after intravenous coelenterazine. On the set-up: species or system mice. The method, then:
FIG. 3A is a digital image, for the in vivo characterization of a coelenterazine (CTZ) pancreatic signal, showing the bioluminescence imaging of mice that were fasted for 6 h or received 2 g/kg intraperitoneal glucose and maintained on 10% sucrose water for 4 h. Mice then received 40 μg CTZ intravenously and were imaged immediately. FIG. 3C is a digital image, for the in vivo characterization of a coelenterazine (CTZ) pancreatic signal, showing the bioluminescence imaging of mice treated with glucose followed by administration of 0.56, 1.4, or 3.5 mg/kg CTZ intravenously. FIG. 3D is a graph illustrating the quantification of the signal detected in FIG. 3C at 1 min intervals following CTZ injection. […] A standardized anesthetic protocol with a defined anesthetic dose and induction period (if using inhalant anesthetics) is also required. Coelenterazine is prepared at a concentration of 10 mg/mL in 100% ethanol. The coelenterazine may be further diluted in a pharmaceutically acceptable carrier selected as suitable for injection into an animal subject for imaging. […] It is important to protect the imaging solution from light and that is prepared immediately prior to use. Following anesthetic induction, the imaging solution is intravenously administered at a dose of about 1-10 mg/kg and imaging is begun immediately in using an in vivo bioluminescence imaging system.

Test [3] concerns rat insulinoma cell lines (RIN5F β-cell line). In words: In vitro bioluminescence imaging of cell lines with coelenterazine (cell plate assay). The class given is cell-based. As for the experimental part: FIG. 1A is a digital image illustrating a cell plate assay. 10^5 cells of each cell line were washed two times in serum-free RPMI and plated in a 96-well black plate. Coelenterazine was added to a final concentration of 10 μM and the plate imaged. RIN5F is a β-cell line and the remainder are control cell lines.
FIG. 1B is a graph illustrating the quantification of the bioluminescence signals of FIG. 1A. Error bars represent the standard error.
In vitro experiments for the imaging cell lines may be completed on the day of cell collection or following incubation. If imaging is performed following prolonged incubation combined with comparisons between dissimilar cell lines, it is important to consider the likelihood of there being a different division rate for each cell line.
For same-day imaging, the cells are collected by a method dictated by the particular cell line. Cells are washed twice in imaging buffer by repeated resuspension and centrifugation (a variety of buffers have proven effective, including: PBS, DPBS and Krebs). […] The desired concentration of cells is added to an imaging plate.
Coelenterazine is resuspended to a concentration of about 1-10 mg/mL in 100% ethanol and then diluted in imaging buffer to achieve the desired imaging concentration. […]
The coelenterazine is added to wells to be imaged and the signal detected using a bioluminescence detection system such as an IVIS. […]

`O=c1c(Cc2ccc(O)cc2)nc2c(Cc3ccccc3)[nH]c(-c3ccc(O)cc3)cn1-2` [coelenterazine, 6-(4-hydroxyphenyl)-2-[(4-hydroxyphenyl)methyl]-8-(phenylmethyl)-7H-imidazo[3,2-a]pyrazin-3-one]: in test [1] (STZ 200 mg/kg day 0, imaging 3 days post-treatment, in vivo and ex vivo pancreas), the “pancreatic signal in STZ-treated mice versus PBS control” value is recorded as “significant difference (P=0.0000); also recorded: reduced in type I diabetic mice; also recorded: significant reduction in pancreatic signal in STZ-treated mice”. The “correlation between pancreatic signal and blood glucose” value in test [1] (STZ and PBS mice) was “correlation was significant (P=0.0317); also recorded: significant and inverse correlation”. In addition, the “bioluminescence signal of pancreas compared to other tissues” value with pancreas is “Significantly greater signals were detected from the pancreas compared to all other tissues; also recorded: significantly elevated pancreatic signal compared to other examined non-insulin-producing tissues”. Moreover, in test [2] (intravenous, about 1-10 mg/kg), the “time of maximum pancreatic signal intensity post-injection” value lay within 2 to 5 min. The “signal of insulin-secreting β-cells compared to cells quiescent due to fasting” value in test [2] (mice, glucose-treated vs fasted) is given as “insulin-secreting β-cells produced a greater signal”. Further, in test [2] (mice, intravenous), the “dose dependence of detectable signal intensity” value was “dose-dependent” and the “location of bioluminescence signal upon intravenous injection” value is “pancreatic-specific bioluminescent signal; also recorded: a mid-upper abdominal bioluminescence signal was detected”. In test [3] (in the absence of any additional reagents), the “coelenterazine-dependent bioluminescence signal of rat insulinoma cell lines relative to other cell lines” value is “greater coelenterazine-dependent bioluminescence signal relative to other cell lines”. For the same compound, the “time to stable maximum of signal following coelenterazine addition” value in test [3] (in vitro, cells in imaging buffer) is 15 to 45 min.

Consider `CN(N=O)C(=O)N[C@H]1C(O)O[C@H](CO)[C@@H](O)[C@@H]1O` (mixture of isomers) [streptozotocin], for which the “blood glucose values, STZ versus PBS” value in test [1] (200 mg/kg STZ on day 0, measured on day 3) is listed as “difference (P=0.0265)”.
